US8569336B2, “Compounds for the treatment of inflammatory disorders” (priority 2008, dated 2013)
Read-outs that look alike come from different tables or passages of the source.

How the values were obtained:
[1] = target: T1, purified catalytic domain of recombinant human TACE (rhTACEc) (Homo sapiens, UniProt P78536, N452Q/S266A); assay: TACE kinetic assay: cleavage of internally quenched peptide substrate TNF-FRET 2 (Ki); format: biochemical; conditions: TNF-FRET 2 substrate
T1 construct: 6xHis (C); made in house; host or cells: baculovirus/Hi5 insect cells
T1 sequence (P78536 215-477 S266A/N452Q): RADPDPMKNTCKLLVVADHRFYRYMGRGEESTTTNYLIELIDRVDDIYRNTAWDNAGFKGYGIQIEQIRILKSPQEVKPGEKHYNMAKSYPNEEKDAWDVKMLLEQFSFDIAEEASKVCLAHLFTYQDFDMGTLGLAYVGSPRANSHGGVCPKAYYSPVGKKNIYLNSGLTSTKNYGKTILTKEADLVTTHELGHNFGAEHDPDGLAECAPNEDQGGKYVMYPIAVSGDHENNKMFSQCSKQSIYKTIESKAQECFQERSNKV

[2] = test system: TNF-α production from human whole blood; assay: Inhibition of TNF-α production from human whole blood (hWBA), LPS stimulated, ELISA; format: cell-based; conditions: Homo sapiens, 3.5 h, human whole blood diluted 1:1, LPS stimulated, 3.5 h, TNF-α by ELISA; read-out: hWBA (IC50)
[3] = Area under the curve determinations of plasma levels in rats (rrAUC), oral 10 mg/kg; format: in vivo; conditions: rat, plasma 0.5-6 h post-dosing, read-out: RR AUC (rapid rat AUC, rrAUC)

| SMILES | Ki ([1]; Ki) [nM] | IC50 [2] [nM] | AUC [3] [µM·h] | Ki ([1]; read-out: Ki) [nM] |
| --- | --- | --- | --- | --- |
| COc1ccc2c(c1)C(=O)N(C[C@@]1(c3cc4ccc(-c5nnco5)cc4o3)NC(=O)NC1=O)C2 [Compound 2189] | 0.536 | 672 | 0.988 | – |
| COc1ccc2c(c1)C(=O)N(C[C@@]1(c3cc4ccc(-c5nnc(C)o5)cc4o3)NC(=O)NC1=O)C2 [Compound 2190] | – | 958 | 0.414 | 0.515 |
| COc1ccc2c(c1)C(=O)N(C[C@@]1(c3cc4cc(-c5cccnc5)ccc4o3)NC(=O)NC1=O)C2 [Compound 2195] | 0.966 | 2120 | 1.16 | – |
| COc1ccc2c(c1)C(=O)N(C[C@@]1(c3cc4cc(-n5cncn5)ccc4o3)NC(=O)NC1=O)C2 [Compound 2196] | – | 1540 | 7.06 | 0.645 |
| COc1ccc2c(c1)C(=O)N(C[C@@]1(c3cc4cc(C5(C)NC(=O)NC5=O)c(F)cc4o3)NC(=O)NC1=O)C2 (stereo partly drawn) [Compound 2200] | – | 217 | 0.177 | 1.85 |
| COc1ccc2c(c1F)C(=O)N(C[C@@]1(c3cc4ncccc4o3)NC(=O)NC1=O)C2 [Compound 2203] | – | 200 | 3.92 | 0.468 |
| COc1ccc2c(c1F)C(=O)N(C[C@@]1(c3cc4c(C)nccc4o3)NC(=O)NC1=O)C2 [Compound 2204] | – | 115 | 0.983 | 0.34 |
| COc1ccc2c(c1)C(=O)N(C[C@@]1(c3cc4cc(C5(C)NC(=O)NC5=O)c(C)cc4o3)NC(=O)NC1=O)C2 (stereo partly drawn) [Compound 2207] | – | 310 | 0.063 | 0.813 |
| CCC1(c2cc(F)c3oc([C@]4(CN5Cc6ccc(OC)cc6C5=O)NC(=O)NC4=O)cc3c2)NC(=O)NC1=O (stereo partly drawn) [Compound 2210] | – | 232 | 0.018 | 0.319 |
| COc1ccc2c(c1)C(=O)N(C[C@@]1(c3cc4ccccc4o3)NC(=O)NC1=O)C2 [Compound 2214] | – | 2310 | 0.195 | 0.274 |
| COc1ccc2c(c1)C(=O)N(C[C@@]1(c3cc4cc(-c5cc[nH]n5)ccc4o3)NC(=O)NC1=O)C2 [Compound 2219] | – | 1390 | 1.02 | 0.682 |
| COc1ccc2c(c1)C(=O)N(C[C@@]1(c3cc4cc(-c5csc(N)n5)ccc4o3)NC(=O)NC1=O)C2 [Compound 2220] | – | 722 | 0.165 | 0.243 |
| COc1ccc2c(c1)C(=O)N(C[C@@]1(c3cc4cc(N)ccc4o3)NC(=O)NC1=O)C2 [Compound 2226] | – | 573 | 0.467 | 0.807 |
| CNC(=O)Nc1ccc2oc([C@]3(CN4Cc5ccc(OC)cc5C4=O)NC(=O)NC3=O)cc2c1 [Compound 2227] | – | 541 | 0.057 | 0.478 |
| COc1ccc2c(c1)C(=O)N(C[C@@]1(c3cc4cc(NC(=O)N(C)C)ccc4o3)NC(=O)NC1=O)C2 [Compound 2228] | – | 2370 | 0.129 | 0.839 |
| CCNC(=O)Nc1ccc2oc([C@]3(CN4Cc5ccc(OC)cc5C4=O)NC(=O)NC3=O)cc2c1 [Compound 2229] | 0.388 | 457 | 0.158 | – |
| COc1ccc2c(c1)C(=O)N(C[C@@]1(c3cc4cnc(-c5ccncc5)cc4o3)NC(=O)NC1=O)C2 [Compound 2231] | 0.54 | 1420 | 2.75 | – |
| COc1ccc2c(c1)C(=O)N(C[C@@]1(c3cc4cnc(-c5cccnc5)cc4o3)NC(=O)NC1=O)C2 [Compound 2232] | – | 1100 | 2.22 | 0.538 |
| COc1ccc2c(c1)C(=O)N(C[C@@]1(c3cc4cnc(-c5cncnc5)cc4o3)NC(=O)NC1=O)C2 [Compound 2233] | – | 772 | 3.81 | 0.763 |
| COc1ccc2c(c1)C(=O)N(C[C@@]1(c3cc4cnc(-c5ccccc5F)cc4o3)NC(=O)NC1=O)C2 [Compound 2234] | – | 14300 | 127 | 0.527 |
| COc1ccc2c(c1)C(=O)N(C[C@@]1(c3cc4c(-c5cccnc5)nccc4o3)NC(=O)NC1=O)C2 [Compound 2235] | – | 553 | 0.018 | 0.384 |

| SMILES | Ki ([1]; Ki) [nM] | IC50 [2] [nM] | AUC [3] [µM·h] | Ki ([1]; read-out: Ki) [nM] |
| --- | --- | --- | --- | --- |
| COc1ccc2c(c1)C(=O)N(C[C@@]1(c3cc4c(-c5ccncc5)nccc4o3)NC(=O)NC1=O)C2 [Compound 2236] | – | 949 | 0.02 | 0.54 |
| COc1ccc2c(c1)C(=O)N(C[C@@]1(c3cc4cc(-c5ccncc5)ncc4o3)NC(=O)NC1=O)C2 [Compound 2238] | – | 628 | 4.86 | 0.889 |
| COc1ccc2c(c1)C(=O)N(C[C@@]1(c3cc4cc(-c5cccnc5)ncc4o3)NC(=O)NC1=O)C2 [Compound 2239] | – | 718 | 9.84 | 0.669 |
| COc1ccc2c(c1)C(=O)N(C[C@@]1(c3cc4cc(-c5ccccc5F)ncc4o3)NC(=O)NC1=O)C2 [Compound 2240] | – | 3640 | 12.8 | 0.714 |
| COc1ccc2c(c1)C(=O)N(C[C@@]1(c3cc4cc(-c5ccccc5O)ncc4o3)NC(=O)NC1=O)C2 [Compound 2241] | – | ≥ 10000 | 1.39 | 1.19 |
| COc1ccc2c(c1)C(=O)N(C[C@@]1(c3cc4cc(-c5ccc(O)cc5)ncc4o3)NC(=O)NC1=O)C2 [Compound 2243] | – | 753 | 0.027 | 0.427 |
| COc1ccc2c(c1)C(=O)N(C[C@@]1(c3cc4cc(-c5ccnc(N)n5)ccc4o3)NC(=O)NC1=O)C2 [Compound 2245] | – | 1060 | 6.03 | 0.456 |
| COc1ccc2c(c1)C(=O)N(C[C@@]1(c3cc4cc(-c5cc(N)n(C)n5)ccc4o3)NC(=O)NC1=O)C2 [Compound 2247] | 0.333 | 782 | 0.375 | – |
| COc1ccc2c(c1)C(=O)N(C[C@@]1(c3cc4ccc(NC(C)=O)nc4o3)NC(=O)NC1=O)C2 [Compound 2249] | – | 178 | 0.974 | 0.65 |
| COc1ccc2c(c1)C(=O)N(C[C@@]1(c3cc4ccc(N)nc4o3)NC(=O)NC1=O)C2 [Compound 2250] | – | 218 | 0.391 | 0.433 |
| COc1ccc2c(c1)C(=O)N(C[C@@]1(c3cc4cnc(N5CCNC5=O)cc4o3)NC(=O)NC1=O)C2 [Compound 2252] | 1.79 | 206 | 1.18 | – |
| COc1ccc2c(c1)C(=O)N(C[C@@]1(c3cc4cc(-c5cccnc5)cnc4o3)NC(=O)NC1=O)C2 [Compound 2254] | – | 1670 | 1.77 | 0.599 |
| COc1ccc2c(c1)C(=O)N(C[C@@]1(c3cc4cc(-c5ccncc5)cnc4o3)NC(=O)NC1=O)C2 [Compound 2255] | – | 396 | 0.527 | 0.523 |
| COc1ccc2c(c1)C(=O)N(C[C@@]1(c3cc4c(C)nc(C)cc4o3)NC(=O)NC1=O)C2 [Compound 2257] | – | 676 | 4.23 | 0.53 |
| COc1ccc2c(c1)C(=O)N(C[C@@]1(c3cc4cnc(C)cc4o3)NC(=O)NC1=O)C2 [Compound 2258] | – | 345 | 19.1 | 0.366 |
| COc1ccc2c(c1)C(=O)N(C[C@@]1(c3cc4c(o3)CCN(C)C4)NC(=O)NC1=O)C2 [Compound 2263] | – | ≥ 1000 | 0.24 | 7.71 |
| COc1ccc2c(c1)C(=O)N(C[C@@]1(c3cc4c(o3)CN(C)CC4)NC(=O)NC1=O)C2 [Compound 2264] | – | 1180 | 0.623 | 0.417 |
| COCCN1CCc2oc([C@]3(CN4Cc5ccc(OC)cc5C4=O)NC(=O)NC3=O)cc2C1 [Compound 2267] | – | 1040 | 0.278 | 5.27 |
| COc1ccc2c(c1)C(=O)N(C[C@@]1(c3cc4cnc(C(F)(F)F)cc4o3)NC(=O)NC1=O)C2 [Compound 2269] | 0.497 | 1620 | 19.3 | – |
| COc1ccc2c(c1F)C(=O)N(C[C@@]1(c3cc4cccnc4o3)NC(=O)NC1=O)C2 [Compound 2271] | – | 218 | 10.6 | 0.36 |
